In US7767679B2, “Sulfonylamino-derivatives as novel inhibitors of histone deacetylase” (Janssen Pharmaceutica N.V., priority 2002, dated 2010):
Values after ≈ are worked out from the molar mass of the structure shown. Like-named read-outs stand apart in the source and are kept apart here.

Tests used:
[1] = target: histone deacetylase (HeLa nuclear extracts); test: In vitro assay for inhibition of histone deacetylase; type: biochemical; details: HeLa nuclear extracts 60 μg/ml, [3H]acetylated histone H4 peptide substrate, 30 min
Experimental: The in vitro assay for inhibition of histone deacetylase (see example C.1) measures the inhibition of HDAC enzymatic activity obtained with the compounds of formula (I).
HeLa nuclear extracts (supplier: Biomol) were incubated at 60 μg/ml with 2×10^−8 M of radiolabeled peptide substrate. As a substrate for measuring HDAC activity a synthetic peptide, i.e. the amino acids 14-21 of histone H4, was used. The substrate is biotinylated at the NH2-terminal part with a 6-aminohexanoic acid spacer, and is protected at the COOH-terminal part by an amide group and specifically [^3H]acetylated at lysine 16. The substrate, biotin-(6-aminohexanoic)Gly-Ala-([^3H]-acetyl-Lys-Arg-His-Arg-Lys-Val-NH2), was added in a buffer containing 25 mM Hepes, 1 M sucrose, 0.1 mg/ml BSA and 0.01% Triton X-100 at pH 7.4. After 30 min the deacetylation reaction was terminated by the addition of HCl and acetic acid. (final concentration […] respectively). After stopping the reaction, the free ^3H-acetate was extracted with ethylacetate. After mixing and centrifugation, the radioactivity in an aliquot of the upper (organic) phase was counted in β-counter.
For each experiment, controls (containing HeLa nuclear extract and DMSO without compound), a blank incubation (containing DMSO but no HeLa nuclear extract or compound) and samples (containing compound dissolved in DMSO and HeLa nuclear extract) were run in parallel. In first instance, compounds were tested at a concentration of 10^−5M. […] In each test the blank value was substracted from both the control and the sample values. The control sample represented 100% of substrate deactylation. For each sample the radioactivity was expressed as a percentage of the mean value of the controls. […] Herein the effects of test compounds are expressed as pIC50 (the negative log value of the IC50-value).

[2] = system: A2780 ovarian carcinoma cells; test: Antiproliferative activity on A2780 cells (MTT); type: cell-based; details: Homo sapiens, 96 h, four days of incubation, read-out: Cellular activity pIC50 (converted)
Experimental: Cellular activity of the compounds of formula (I) was determined on A2780 tumour cells using a colorimetric assay for cell toxicity or survival (Mosmann Tim, Journal of Immunological Methods 65: 55-63, 1983)(see example C.2).
All compounds tested were dissolved in DMSO and further dilutions were made in culture medium. Final DMSO concentrations never exceeded 0.1% (v/v) in cell proliferation assays. Controls contained A2780 cells and DMSO without compound and blanks contained DMSO but no cells. MTT was dissolved at 5 mg/ml in PBS. A glycine buffer comprised of 0.1 M glycine and 0.1 M NaCl buffered to pH 10.5 with NaOH (1 N) was prepared (all reagents were from Merck).
The human A2780 ovarian carcinoma cells (a kind gift from Dr. T. C. Hamilton [Fox Chase Cancer Centre, Pennsylvania, USA]) were cultured in RPMI 1640 medium supplemented with 2 mM L-glutamine, 50 μg/ml gentamicin and 10% fetal calf serum. Cells were routinely kept as monolayer cultures at 37° C. in a humidified 5% CO2 atmosphere. Cells were passaged once a week using a trypsin/EDTA solution at a split ratio of 1:40. All media and supplements were obtained from Life Technologies. Cells were free of mycoplasma contamination as determined using the Gen-Probe Mycoplasma Tissue Culture kit (supplier: BioMérieux).
Cells were seeded in NUNC™ 96-well culture plates (Supplier: Life Technologies) and allowed to adhere to the plastic overnight. Densities used for plating were 1500 cells per well in a total volume of 200 μl medium. After cell adhesion to the plates, medium was changed and drugs and/or solvents were added to a final volume of 200 μl. Following four days of incubation, medium was replaced by 200 μl fresh medium and cell density and viability was assessed using an […] assay. To each well, 25 μl μl MTT solution was added and the cells were further incubated for 2 hours at 37° C. The medium was then carefully aspirated and the blue MT-formazan product was solubilized by addition of 25 μl glycine buffer followed by 100 μl of DMSO. […] Within an experiment, the results for each experimental condition are the mean of 3 replicate wells. For initial screening purposes, compounds were tested at a single fixed concentration of 10^−6 M. For active compounds, the experiments were repeated to establish full concentration-response curves. For each experiment, controls (containing no drug) and a blank incubation (containing no cells or drugs) were run in parallel. The blank value was subtracted from all control and sample values. For each sample, the mean value for cell growth (in absorbance units) was expressed as a percentage of the mean value for cell growth of the control. […] Herein the effects of test compounds are expressed as pIC50 (the negative log value of the IC50-value).

[3] = Kinetic solubility in aqueous media; type: physicochemical; details: aqueous buffer, kinetic from dmso stock; phosphate citrate buffer pH 7.4, turbidity by nephelometer; read-out: Solubility Score
Experimental: Kinetic solubility in aqueous media measures the ability of a compound to stay in aqueous solution upon dilution (see example C.3).
DMSO-stock solutions are diluted with a single aqueous buffer solvent in 3 consecutive steps. For every dilution turbidity is measured with a nephelometer.
In the first dilution step, 10 μl of a concentrated stock-solution of the active compound, solubilized in DMSO (5 mM), was added to 100 μl phosphate citrate buffer pH 7.4 and mixed. In the second dilution step, an aliquot (20 μl) of the first dilution step was further dispensed in 100 μl phosphate citrate buffer pH 7.4 and mixed. Finally, in the third dilution step, a sample (20 μl) of the second dilution step was further diluted in 100 μl phosphate citrate buffer pH 7.4 and mixed. All dilutions were performed in 96-well plates. Immediately after the last dilution step the turbidity of the three consecutive dilution steps were measured with a nephelometer. Dilution was done in triplicate for each compound to exclude occasional errors. Based on the turbidity measurements a ranking is performed into 3 classes. Compounds with high solubility obtained a score of 3 and for this compounds the first dilution is clear. Compounds with medium solubility obtained a score of 2. For these compounds the first dilution is unclear and the second dilution is clear. […] The solubility of 9 compounds was measured.

[4] = not given; remark: listed apart in the source

| SMILES | Enzyme activity pIC50 [1] | IC50 [2] [nM] | solubility [3] [µM] | melting point [°C] | % metabolism ([4]; human, 15 min, 5 μM) [%] | % metabolism ([4]; 15 min incubation with active microsomes (1 mg/ml), compound 5 μM) [%] |
| --- | --- | --- | --- | --- | --- | --- |
| O=C(NO)c1ccc(N2CCC(NS(=O)(=O)c3ccc(-c4ccccc4)cc3)CC2)nc1 [compound 15] | 7.413 | 1240 | < 76 | – | – | – |
| O=C(NO)c1ccc(N2CCC(CNS(=O)(=O)c3ccc4ccccc4c3)CC2)nc1 [Co. No. 4] | 7.574 | 1360 | < 76 | 173 | – | – |
| COc1cc(N)c(Cl)cc1C(=O)NC1CCN(CCCOc2ccc(F)cc2)CC1OC (stereo not shown) [Cisapride] | – | – | – | – | 45 | – |
| CCCO [propanol] | – | – | – | – | – | 25 |
| O=C(NO)c1cnc(N2CCC(O)(CNS(=O)(=O)c3ccc4ccccc4c3)CC2)nc1 [Co. No. 9] | 7.579 | > 10000 | 76 to 455 (≈ 34.8 to 208 µg/mL) | 228 | – | – |

Further lines, with some results ahead:

| Enzyme activity pIC50 [1] | IC50 [2] [nM] | solubility [3] [µM] | melting point [°C] | % metabolism ([4]; human, 15 min, 5 μM) [%] | SMILES | % metabolism ([4]; 15 min incubation with active microsomes (1 mg/ml), compound 5 μM) [%] |
| --- | --- | --- | --- | --- | --- | --- |
| 6.104 | 27.1 | > 455 | 200 | – | O=C(NO)c1cnc(N2CCC(NS(=O)(=O)c3ccc4ccccc4c3)CC2)nc1 [Co. No. 2] | – |
| 8.123 | 369 | < 76 | – | – | O=C(NO)c1cnc(N2CCC(CNS(=O)(=O)c3ccc4ccccc4c3)CC2)nc1 [Co. No. 5] | – |
| 7.533 | 9620 | > 455 | 203 | – | O=C(NO)c1cnc(N2CC[C@H](NS(=O)(=O)c3ccc4ccccc4c3)[C@H](CO)C2)nc1 [Co. No. 7] | – |
| 7.355 | 3040 | > 455 | 224 | – | O=C(NO)c1cnc(N2CC[C@H](CNS(=O)(=O)c3ccc4ccccc4c3)[C@H](O)C2)nc1 [Co. No. 8] | – |
